For one data set, the system named is migraine with aura. As to the kind of experiment: single centre, double-blind, randomised, placebo controlled crossover study of prophylaxis of migraine in patients with migraine with aura. Format: in vivo. To be noted: 31 patients with migraine with aura, 20 or 40 mg po od, 12 week treatment period. The protocol:
A single centre, double-blind, randomised, placebo controlled crossover study to evaluate the efficacy and tolerability of tonabersat in the prophylaxis of migraine in patients presenting with migraine with aura was conducted. Twelve week treatment period followed by a 4 week wash-out period before cross-over to 12 weeks treatment with the alternative trial medication. To investigate the efficacy of tonabersat compared to placebo in the reduction of the number of aura attacks and the number of migraine headache days in patients with migraine with aura. Following screening, patients were randomised to active or placebo treatment for 12 weeks. During the first two weeks of the treatment period, patients received treatment with tonabersat 20 mg (one tablet daily) or matching placebo. After two weeks, the dose was increased to tonabersat 40 mg per day (two tablets taken once daily [od]) with a similar increase in the number of placebo tablets taken. Depending on tolerability during the treatment period, the dose may have been reduced to 20 mg per day (or one placebo tablet) for the remainder of the treatment period. On completion of the first treatment period patients received placebo tablets (one tablet daily) for 4 weeks before starting the second treatment period when the alternative trial medication was administered. The design of the second period was the same as the first. […]

Data set [1] in a line: clinical trials, oral administration to man: plasma pharmacokinetics. The data set is classed as in vivo. The note with it: human, oral compositions as described in Table 1, administered orally to man. An excerpt: When taken during a migraine attack TMAX may be more variable and prolonged.

Molecules are shown by their SMILES.

Turning to `CC(=O)c1ccc2c(c1)[C@H](NC(=O)c1ccc(F)c(Cl)c1)[C@H](O)C(C)(C)O2` [tonabersat, cis-6-acetyl-4-(S)-(3-chloro-4-fluorobenzoylamino)-3,4-dihydro-2,2-dimethyl-2H-1-benzopyran-3-(S)-ol], the “reduction in aura attacks compared to placebo” value with migraine with aura (p=0.01) is reported as 50%. Besides, in the data set on migraine with aura (p=0.08), the “reduction in migraine headache days compared to placebo” value was determined as 37.5%. In data set [1] (read-out: terminal elimination half life), the half-life lay in the range of 24 to 40 h. Also, the Tmax in data set [1] (read-out: time to maximum plasma concentration (TMAX)) fell in the range of 1 to 3 h.

As a reminder, the half-life is the time needed for the level to fall by half in the phase considered.
